This note sets out measurements from ChEMBL document CHEMBL4229431, “Discovery of novel selective GPR120 agonists with potent anti-diabetic activity by hybrid design” (Bioorg Med Chem Lett, 2018).

Active and inactive are the calls of the source. The calls are words filed in the database; no cut-off is given here. Where only a bound is given, the exact number is not on record here.

In test [1] the target is Free fatty acid receptor 1 (Homo sapiens, UniProt O14842). As to the kind of experiment: Agonist activity at human GPR40 expressed in CHO cells assessed as increase in intracellular calcium level by Fluo-4-AM dye based assay. It is filed as functional, cell-based. For orientation: Calcium flux is commonly read through the fluorescence of an indicator in the cells.
The target in test [2] is T1, Free fatty acid receptor 4 (Homo sapiens, UniProt Q5NUL3).
T1 sequence (Q5NUL3 whole entry): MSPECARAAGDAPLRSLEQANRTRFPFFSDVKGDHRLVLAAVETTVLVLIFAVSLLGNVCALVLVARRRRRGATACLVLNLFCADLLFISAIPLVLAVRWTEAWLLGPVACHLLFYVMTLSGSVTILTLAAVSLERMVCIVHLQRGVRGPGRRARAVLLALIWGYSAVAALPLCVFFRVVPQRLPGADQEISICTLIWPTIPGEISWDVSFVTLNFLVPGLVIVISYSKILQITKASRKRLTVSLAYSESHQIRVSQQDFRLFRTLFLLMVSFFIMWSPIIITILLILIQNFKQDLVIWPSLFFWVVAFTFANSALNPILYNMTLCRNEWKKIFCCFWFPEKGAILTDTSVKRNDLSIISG
Kind of test: Agonist activity at human GPR120 expressed in CHO cells assessed as increase in intracellular calcium level by Fluo-4-AM dye based assay. It is filed as functional, cell-based.

Test [3] deals with Mus musculus. As to the kind of experiment: Hypoglycemic activity in ICR mouse assessed as reduction in blood glucose level at 10 mg/kg, po pretreated for 60 mins followed by glucose challenge measured up to 120 mins by OGTT. It is filed as functional, organism-based.
The species entered for test [4] is Homo sapiens. As to the kind of experiment: Selectivity ratio of EC50 for agonist activity at human GPR40 expressed in CHO cells to EC50 for agonist activity at human GPR120 expressed in CHO cells. It is filed as cell-based.
Test [5] addresses T2, Free fatty acid receptor 4 (Homo sapiens) (UniProt Q5NUL3).
T2 sequence (whole entry): T1 sequence (Q5NUL3 whole entry)
As to the kind of experiment: Agonist activity at human GPR120 expressed in CHO cells assessed as increase in intracellular calcium level at 1 uM by Fluo-4-AM dye based assay. It is filed as functional, cell-based.

Test [6] addresses T1, Free fatty acid receptor 4. As to the kind of experiment: Agonist activity at human GPR120. It is filed as functional.
Test [7] relates to Mus musculus. Kind of test: Hypoglycemic activity in ICR mouse assessed as reduction in blood glucose level pretreated orally for 60 mins followed by glucose challenge measured up to 120 mins by OGTT. It is filed as functional, organism-based.

Chain of Free fatty acid receptor 1 (O14842 whole entry): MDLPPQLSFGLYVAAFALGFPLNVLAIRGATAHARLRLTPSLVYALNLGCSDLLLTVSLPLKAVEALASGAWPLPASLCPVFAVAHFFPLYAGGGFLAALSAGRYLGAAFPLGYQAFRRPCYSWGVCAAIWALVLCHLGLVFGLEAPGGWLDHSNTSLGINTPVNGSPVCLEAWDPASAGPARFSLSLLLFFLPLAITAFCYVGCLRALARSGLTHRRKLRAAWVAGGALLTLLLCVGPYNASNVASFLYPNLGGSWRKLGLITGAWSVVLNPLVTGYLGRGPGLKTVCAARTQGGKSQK

For `CO[C@H]1C[C@H](Oc2cc(F)c(F)c(-c3ccc4c(c3)CC[C@H](CCC(=O)O)O4)c2)C1`, the results for the EC50 in test [1] and in test [2] were greater than 100 µM and 0.463 µM, respectively. Also, the result in test [3] was Active.

For the compound `O=C(O)CCCOc1c(F)cc(-c2cc(OC3CCOCC3)cc(F)c2F)cc1F`, the EC50 in test [1] was greater than 100 µM; in test [2] it was 2.78 µM.

With `CO[C@H]1C[C@H](Oc2cc(F)c(F)c(-c3cc(F)c(OCCCCCC(=O)O)c(F)c3)c2)C1`, the EC50 in test [1] was 11 µM; in test [2], 0.638 µM. The Ratio EC50 in test [4] was determined as 17.

Turning to `CO[C@H]1C[C@H](Oc2cc3c(c(-c4cc(F)c(OCCCC(=O)O)c(F)c4)c2)OCO3)C1`, the EC50 in test [1] was greater than 100 µM; in test [2] it was 0.22 µM.

Regarding `CO[C@H]1C[C@H](Oc2cc(F)c(F)c(-c3cc(F)c(OCCCC(=O)NS(=O)(=O)c4ccccc4)c(F)c3)c2)C1`, the outcome in test [5] was inactive.

`COc1cc(-c2cc(O[C@H]3C[C@H](OC)C3)cc(F)c2F)cc(OC)c1OCCCC(=O)O`: the outcome in test [5] was inactive.

Take `CO[C@H]1C[C@H](Oc2cc(F)c(F)c(-c3cc(F)c(S(=O)(=O)CCCC(=O)O)c(F)c3)c2)C1`: in test [5], the result was inactive.

As to `Cc1c(COc2cc(F)c(F)c(-c3cc(F)c(OCCCC(=O)O)c(F)c3)c2)cccc1-c1ccccc1`, in test [5], the outcome was inactive.

Turning to `CO[C@H]1C[C@H](Oc2cc(F)c(F)c(-c3cc(C)c(OCCCC(=O)O)c(C)c3)c2)C1`, the EC50 in test [1] was greater than 100 µM; in test [2], 0.874 µM.

Turning to `CO[C@H]1C[C@H](Oc2cc(F)c(F)c(-c3cc(F)c(OCCCC(=O)OCCNC(C)=O)c(F)c3)c2)C1`, the outcome in test [5] was inactive.

As to `CC(C)Nc1ccccc1-c1cc(F)c(OCCCC(=O)O)c(F)c1`, the figures for the EC50 in test [1], in test [2] and in test [6] were greater than 100 µM, 1.47 µM and 0.2 to 2 µM, respectively.

Consider `COc1cc(F)c(F)c(-c2cc(F)c(OCCCC(=O)O)c(F)c2)c1`, for which the figures for the EC50 in test [1] and in test [2] were 24.4 µM and 0.069 µM, respectively. For the same compound, the Ratio EC50 in test [4] amounted to 354.

As to `CO[C@H]1C[C@H](Oc2cc(F)c(F)c(-c3cc(F)c(OCC(=O)O)c(F)c3)c2)C1`, in test [5], the result was inactive.

In the case of `CO[C@H]1C[C@H](Oc2cc(F)c(F)c(-c3cc(F)c(OCCCC(=O)NS(C)(=O)=O)c(F)c3)c2)C1`, the result in test [5] was inactive.

`CO[C@H]1C[C@H](Oc2cc(F)c(F)c(-c3cc(F)c(OCCCC(=O)O)c(F)c3)c2)C1`: the Activity entry in test [7] was “Dose-dependent effect”. Also, the EC50 in test [1] was greater than 100 µM; in test [2] it was 0.093 µM.

With `CO[C@H]1C[C@H](Oc2cc(F)c(F)c(-c3cc(F)c(OCCCCC(=O)O)c(F)c3)c2)C1`, the values for the EC50 in test [1] and in test [2] were 68.8 µM and 0.186 µM, respectively. Further, the Ratio EC50 in test [4] was determined as 370.

`CO[C@H]1C[C@H](Oc2cc(F)c(F)c(-c3cc(F)c(OCCC(C)(C)C(=O)O)c(F)c3)c2)C1`: the EC50 is greater than 100 µM in test [1] and 5.04 µM in test [2].

In the case of `CO[C@H]1C[C@H](Oc2ccc([N+](=O)[O-])c(-c3cc(F)c(OCCCC(=O)O)c(F)c3)c2)C1`, the EC50 worked out at 29.4 µM in test [1] and 1.48 µM in test [2]. For the same compound, in test [4], the Ratio EC50 came out at 20.

As for `CO[C@H]1C[C@H](Oc2cc(F)c(F)c(-c3cc(F)c(OCCCCCCC(=O)O)c(F)c3)c2)C1`, the EC50 in test [1] is 3.5 µM; in test [2] it was greater than 100 µM.

`CO[C@H]1C[C@H](Oc2cc(F)c(F)c(-c3cc(F)c(SCCCC(=O)O)c(F)c3)c2)C1`: the EC50 is greater than 100 µM in test [1] and 0.347 µM in test [2].

Regarding `CO[C@H]1C[C@H](Oc2cc(F)c(F)c(-c3cc(F)c(OCCCCCCCC(=O)O)c(F)c3)c2)C1`, the EC50 in test [1] worked out at 3.48 µM; in test [2], 24 µM. Moreover, the Ratio EC50 in test [4] is less than 1.

The EC50 is the concentration needed to bring the measured effect to its halfway point.
